Laboratory results reported in patent US20190375708A1 (VenatoRx Pharmaceuticals, Inc., priority 2018, published 2019).

Columns and labels:
[1] = tested on: HBV replication in HepAD38 cells; assay: Anti-HBV replication assay in HepAD38 cells (QPCR of extracellular HBV DNA); format: cell-based, HBV (genotype D, serotype ayw); conditions: Hepatitis B virus, 168 h, 7 days incubation, extracellular HBV DNA by QPCR, read-out: Anti-HBV EC50
Procedure, shortened: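 Read-out is QPCR of HBV DNA released into culture supernatant, converted to percent of vehicle control and fitted to give EC50. Cells were HepAD38 induced by tetracycline removal and dosed […] for 7 days.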

[2] = In vitro cytotoxicity assay (MTT cell viability) in HepG2 cells; format: cell-based, human; conditions: human
Procedure, shortened: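 Parental HepG2 cells in EMEM + 10% FBS were exposed to compounds (8 half-log dilutions, 30 μM to 1.0 nM) for 7 days at 37 °C, 5% CO2. MTT was then added for 3-4 h, formazan dissolved in DMSO and absorbance read at 492 nm; CC50 came from 4-parameter fits against vehicle controls.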

SMILES	EC50 [1]	CC50 at 7 days [2]
Cc1nc(CCNC(=O)C(=O)c2c(C)c(C(=O)Nc3ccc(F)c(C)c3)c(C)n2C)c(C)s1 [Example 327, 5-(2-((2-(2,5-dimethylthiazol-4-yl)ethyl)amnio)-2-oxoacetyl)-N-(4-fluoro-3-methylphenyl)-1,2,4-trimethyl-1H-pyrrole-3-carboxamide]	< 50 nM	> 30 µM
Cc1cc(NC(=O)c2c(C)c(C(=O)C(=O)NCCN3CCSCC3)n(C)c2C)ccc1F [Example 328, N-(4-fluoro-3-methylphenyl)-1,2,4-trimethyl-5-(2-oxo-2-((2-thiomorpholinoethyl)amino)acetyl)-1H-pyrrole-3-carboxamide]	50 to 499 nM	> 30 µM
CCN(CC)CCNC(=O)C(=O)c1c(C)c(C(=O)Nc2ccc(F)c(C)c2)c(C)n1C [Example 329, 5-(2-((2-(diethylamino)ethyl)amino)-2-oxoacetyl)-N-(4-fluoro-3-methylphenyl)-1,2,4-trimethyl-1H-pyrrole-3-carboxamide]	500 to 1000 nM	> 30 µM
Cc1cc(NC(=O)c2c(C)c(C(=O)C(=O)N[C@@H]3CCC[C@H](O)C3)n(C)c2C)ccc1F [Example 330, N-(4-fluoro-3-methylphenyl)-5-(2-(((1R,3S)-3-hydroxycyclohexyl)amino)-2-oxoacetyl)-1,2,4-trimethyl-1H-pyrrole-3-carboxamide]	< 50 nM	> 30 µM
Cc1c(C(=O)Nc2ccnc(Cl)c2)c(C)n(C)c1C(=O)C(=O)NC(C)(C)CN1CCOCC1 [Example 331, N-(2-chloropyridin-4-yl)-1,2,4-trimethyl-5-(2-((2-methyl-1-morpholinopropan-2-yl)amino)-2-oxoacetyl)-1H-pyrrole-3-carboxamide]	< 50 nM	> 30 µM
Cc1c(C(=O)Nc2ccc(F)c(Cl)c2)c(C)n(C)c1C(=O)C(=O)NC(C)(C)CN1CCOCC1 [Example 332, N-(3-chloro-4-fluorophenyl)-1,2,4-trimethyl-5-(2-((2-methyl-1-morpholinopropan-2-yl)amino)-2-oxoacetyl)-1H-pyrrole-3-carboxamide]	< 50 nM	> 30 µM
Cc1c(C(=O)Nc2ccc(F)c(Cl)c2)c(C)n(C)c1C(=O)C(=O)N[C@]1(C)CC[C@@H](O)CC1 [Example 333, N-(3-chloro-4-fluorophenyl)-5-(2-(((1r,4r)-4-hydroxy-1-methylcyclohexyl)amino)-2-oxoacetyl)-1,2,4-trimethyl-1H-pyrrole-3-carboxamide]	< 50 nM	> 30 µM
Cc1c(C(=O)Nc2ccc(F)c(F)c2)c(C)n(C)c1C(=O)C(=O)NC12CCC(O)(CC1)CC2 [Example 335, N-(3,4-difluorophenyl)-5-(2-((4-hydroxybicyclo[2.2.2]octan-1-yl)amino)-2-oxoacetyl)-1,2,4-trimethyl-1H-pyrrole-3-carboxamide]	< 50 nM	> 30 µM
CCCOC1(CNC(=O)C(=O)c2c(C)c(C(=O)Nc3ccc(F)c(C)c3)c(C)n2C)CCCCC1 [Example 336, N-(4-fluoro-3-methylphenyl)-1,2,4-trimethyl-5-(2-oxo-2-(((1-propoxycyclohexyl)methyl)amino)acetyl)-1H-pyrrole-3-carboxamide]	< 50 nM	5 to 30 µM
Cc1cc(NC(=O)c2c(C)c(C(=O)C(=O)NCC3(N)CCCCC3)n(C)c2C)ccc1F [Example 337, 5-(2-(((1-aminocyclohexyl)methyl)amino)-2-oxoacetyl)-N-(4-fluoro-3-methylphenyl)-1,2,4-trimethyl-1H-pyrrole-3-carboxamide]	500 to 1000 nM	5 to 30 µM
Cc1cc(NC(=O)c2c(C)c(C(=O)C(=O)Nc3ccc(F)cn3)n(C)c2C)cnc1F [Example 338, N-(6-fluoro-5-methylpyridin-3-yl)-5-(2-((5-fluoropyridin-2-yl)amino)-2-oxoacetyl)-1,2,4-trimethyl-1H-pyrrole-3-carboxamide]	500 to 1000 nM	> 30 µM
Cc1cc(NC(=O)c2c(C)c(C(=O)C(=O)Nc3cccnc3)n(C)c2C)cnc1F [Example 339, N-(6-fluoro-5-methylpyridin-3-yl)-1,2,4-trimethyl-5-(2-oxo-2-(pyridin-3-ylamino)acetyl)-1H-pyrrole-3-carboxamide]	500 to 1000 nM	> 30 µM
Cc1cc(NC(=O)c2c(C)c(C(=O)C(=O)Nc3ccc(F)nc3)n(C)c2C)cnc1F [Example 340, N-(6-fluoro-5-methylpyridin-3-yl)-5-(2-((6-fluoropyridin-3-yl)amino)-2-oxoacetyl)-1,2,4-trimethyl-1H-pyrrole-3-carboxamide]	500 to 1000 nM	> 30 µM
Cc1cc(NC(=O)c2c(C)c(C(=O)C(=O)Nc3ccc(F)c(F)c3)n(C)c2C)cnc1F [Example 341, 5-(2-((3,4-difluorophenyl)amino)-2-oxoacetyl)-N-(5-fluoro-5-methylpyridin-3-yl)-1,2,4-trimethyl-1H-pyrrole-3-carboxamide]	50 to 499 nM	> 30 µM
Cc1csc(NC(=O)C(=O)c2c(C)c(C(=O)Nc3cnc(F)c(C)c3)c(C)n2C)n1 [Example 342, N-(6-fluoro-5-methylpyridin-3-yl)-1,2,4-trimethyl-5-(2-((4-methylthiazol-2-yl)amino)-2-oxoacetyl)-1H-pyrrole-3-carboxamide]	500 to 1000 nM	> 30 µM
Cc1cc(NC(=O)c2c(C)c(C(=O)C(=O)NC3CCC(F)(F)CC3)n(C)c2C)cnc1F [Example 343, 5-(2-((4,4-difluorocyclohexyl)amino)-2-oxoacetyl)-N-(6-fluoro-5-methylpyridin-3-yl)-1,2,4-trimethyl-1H-pyrrole-3-carboxamide]	50 to 499 nM	> 30 µM
CO[C@H]1CC[C@@H](NC(=O)C(=O)c2c(C)c(C(=O)Nc3cnc(F)c(C)c3)c(C)n2C)CC1 [Example 344, N-(6-fluoro-5-methylpyridin-3-yl)-5-(2-(((1s,4s)-4-methoxycyclohexyl)amino)-2-oxoacetyl)-1,2,4-trimethyl-1H-pyrrole-3-carboxamide]	50 to 499 nM	> 30 µM
CO[C@H]1CC[C@@H](NC(=O)C(=O)c2c(C)c(C(=O)Nc3ccnc(Cl)c3)c(C)n2C)CC1 [Example 345, N-(2-chloropyridin-4-yl)-5-(2-(((1s,4s)-4-methoxycyclohexyl)amino)-2-oxoacetyl)-1,2,4-trimethyl-1H-pyrrole-3-carboxamide]	< 50 nM	> 30 µM
Cc1cc(NC(=O)c2c(C)c(C(=O)C(=O)NCCn3ccnc3)n(C)c2C)ccc1F [Example 346, 5-(2-((2-(1H-imidazol-1-yl)ethyl)amino)-2-oxoacetyl)-N-(4-fluoro-3-methylphenyl)-1,2,4-trimethyl-1H-pyrrole-3-carboxamide]	< 50 nM	> 30 µM
Cc1cc(NC(=O)c2c(C)c(C(=O)C(=O)NCCc3cccs3)n(C)c2C)ccc1F [Example 347, N-(4-fluoro-3-methylphenyl)-1,2,4-trimethyl-5-(2-oxo-2-((2-(thiophen-2-yl)ethyl)amino)acetyl)-1H-pyrrole-3-carboxamide]	< 50 nM	> 30 µM
Cc1cc(NC(=O)c2c(C)c(C(=O)C(=O)NCCc3nnc[nH]3)n(C)c2C)ccc1F [Example 348, 5-(2-((2-(4H-1,2,4-triazol-3-yl)ethyl)amino)-2-oxoacetyl)-N-(4-fluoro-3-methylphenyl)-1,2,4-trimethyl-1H-pyrrole-3-carboxamide]	< 50 nM	> 30 µM
Cc1cc(NC(=O)c2c(C)c(C(=O)NC(C)(C)CN3CCOCC3)n(C)c2C)ccc1F [Example 349, N4-(4-fluoro-3-methylphenyl)-1,3,5-trimethyl-N2-(2-methyl-1-morpholinopropan-2-yl)-1H-pyrrole-2,4-dicarboxamide]	> 1000 nM	> 30 µM
Cc1c(C(=O)Nc2ccc(F)nc2)c(C)n(C)c1C(=O)C(=O)NC(C)(C)CN1CCOCC1 [Example 350, N-(6-fluoropyridin-3-yl)-1,2,4-trimethyl-5-(2-((2-methyl-1-morpholinopropan-2-yl)amino)-2-oxoacetyl)-1H-pyrrole-3-carboxamide]	500 to 1000 nM	> 30 µM
Cc1cc(NC(=O)c2c(C)c(C(=O)C(=O)NC(C)(C)CN3CCOCC3)n(C)c2C)cnc1F [Example 351, N-(6-fluoro-5-methylpyridin-3-yl)-1,2,4-trimethyl-5-(2-((2-methyl-1-morpholiinopropan-2-yl)amino)-2-oxoacetyl)-1H-pyrrole-3-carboxamide]	50 to 499 nM	> 30 µM
Cc1cc(NC(=O)c2c(C)c(C(=O)C(=O)NCC(C)(C)N3CCOCC3)n(C)c2C)ccc1F [Example 352, N-(4-fluoro-3-methylphenyl)-1,2,4-trimethyl-5-(2-((2-methyl-2-morpholinopropyl)amino)-2-oxoacetyl)-1H-pyrrole-3-carboxamide]	50 to 499 nM	> 30 µM
Cc1cc(NC(=O)c2c(C)c(C(=O)C(=O)NC3CCCN(C)CC3)n(C)c2C)ccc1F (stereo not drawn) [Example 353, N-(44-fluoro-3-methylphenyl)-1,2,4-trimethyl-5-(2-((1-methylazepan-4-yl)amino)-2-oxoacetyl)-1H-pyrrole-3-carboxamide]	50 to 499 nM	> 30 µM
CC(=O)N1CCC(NC(=O)C(=O)c2c(C)c(C(=O)Nc3ccc(F)c(C)c3)c(C)n2C)CC1 [Example 354, 5-(2-((1-acetylpiperidin-4-yl)amino)-2-oxoacetyl)-N-(4-fluoro-3-methylphenyl)-1,2,4-trimethyl-1H-pyrrole-3-carboxamide]	< 50 nM	> 30 µM
